Assay results taken from patent US9446128B2 (priority 2008, dated 2016).
Where “and” joins values, the source holds several entries; their conditions need not be identical. Identical values can stand only once.

Tested on: salmonella typimurium TA100
Experiment: Microorganism reverse mutation test, strain TA100
Conditions: TA100, positive control, 1 μg/plate
Method: The principle of this test is to make use of histidine-requiring strains that are not alive without histidine. This test is performed for detecting histidine recovery, which is original strain property, caused by mutagen in a mutant test.
To carry out the microorganism reverse mutation test, the test was conducted on test standard strains, salmonella typimurium TA98, TA100, TA1535 and TA1537 as pre-culture. […] The salmonella typimurium TA100 is a test strain upon the reversion of guanine and cytosine in a gene, and the salmonella typimurium TA102 is a test strain upon the reversion of adenine and thymine.
As a negative control group, distilled water was used.
The respective test materials, positive control group chemicals, distilled water were treated on a plate, and thereafter the number of revertant strains was measured.

[N-]=[N+]=[N-] [sodium azide]
Average number of revertant strains: 1,279 and 1,559 | Number of revertant strains: 1,136 and 1,421 and 1,662 and 1,456
